# What was measured:
# C6 glioma cell cultures = experiment: Ki-67 immunoreactivity and proliferation-index in vitro; assay type: cell-based, rat; conditions: 30 μM pio, 2 d and 5 d
# Protocol: C6 glioma cell cultures were treated with pio or vehicle for 2 d and 5 d and fixed in 4% paraformaldehyde, rinsed in TBS and incubated with rabbit anti-Ki-67 (1:200 dilution) at 4° C. overnight and processed as described above. Counterstaining was carried out with propidium iodide (P1; 1:40; Sigma, St. Louis, Mo., USA) or DAPI-staining (1:500 in PBS). For determination of the proliferation-index, Ki-67 positive cells in pio and vehicle treated cells and animals were counted, the percentage of Ki-67 positive cells in 1×10^3 tumor cells (P1 staining used in the in vitro experiments—not shown; DAPI stain used in the in vivo experiments) calculated and statistically compared. The percentage of cleaved caspase-3 positive cells was assessed by counting the immunopositive cells in 1×10^3 tumor (DAPI stain) cells and statistically compared.
# CS-56 = CS-56 expression in vivo (western blot, immunohistochemistry); design: species or system rat
# Protocol: For western-blot analysis, tumor-containing hemispheres were homogenized in Tris-HCl [50 mM Tris-HCl pH8, 120 mM NaCl, 5 mM EDTA, 0.5% (v/v) NP-40, […] phenylmethylsulfonyl fluoride (PMSF)] and sonicated. Homogenates were collected by centrifugation (15 min 11000 g. 4° C.) and protein concentration in the supernatant was determined using the Bio-Rad Protein Assay (Biorad, Munich, Germany). Lysates (20-40 μg) were separated on a 7% (w/v) sodium dodecyl sulfate (SDS)-polyacrylamide gel under reducing conditions and transferred to a PVDF membrane (Millipore, Bedford, Mass., USA). Non-specific binding was blocked by incubation with 5% (w/v) skimmed milk in TBS for 2 h. Following incubation with the primary antibody overnight at 4° C. [rabbit anti-BAX 1:1000, rabbit anti-cleaved caspase-3 1:1000, mouse […] 1:1000, goat anti-MMP-9 1:1000 in TBS containing 0.1% (v/v) Tween 20] membranes were washed three times in TBS/Tween for 5 min and subsequently incubated for 120 min in TBS/Tween containing secondary peroxidase-conjugated antibody at room temperature (anti-rabbit 1:1000, anti-mouse 1:1000; anti-goat 1:1000 respectively). Signals were visualized by chemoluminescence (Pierce, Rockford, Ill., USA) and band intensities were quantified with NIH Image 1.62 software (Bethesda, Md., USA). Frozen brain sections were first blocked with 5% normal goat serum or normal horse serum in PBS and subsequently incubated with rabbit anti-Ki-67 antibody (1:200 dilution), mouse anti-CS-56 (1:100 dilution), goat anti-MMP-9 (1:100 dilution) or rabbit anti-cleaved caspase-3 antibody (1:200 dilution) at 4° C. overnight. Sections were washed extensively with PBS before incubation with secondary antibodies. Incubation was carried at room temperature for 1 h. After washing with PBS three times, stained slides were mounted with PBS/glycerol (1:1) and viewed under a fluorescent microscope (Leica, Germany).
# [1] = test system: C6 glioma cells injected in rat striata; experiment: C6 rat glioma model, tumor volume and histology; assay type: in vivo; conditions: for reduction of tumor volume compared to vehicle: 21 d
# Protocol: Spraque-Dawley rats (Charles River Laboratories, Sulzfeld, Germany), weighting 200-250 g were used. Animals were housed in groups of two under standard conditions at a temperature of 22° C.±1 and a 12-h light-dark cycle with free access to food and water. Experiments were carried out in accordance with the declaration of Helsinki and were approved by the local ethical committee for animal experiments. Before implantation, 85-90% confluent C6 cells were trypsinized, rinsed with DMEM+10% fetal calf serum, and centrifuged at 1000 rpm for 4 min. The cell pellet was resuspended in DMEM and placed on ice. Concentration of viable cells was adjusted to 1×10^5 cells/1 μl of DMEM. Each rat was anesthetized and placed in a stereotactic frame (David Kopf Instruments, Tujunga, Calif., USA), a hole was drilled at AP 0.0, R -3.0 relative to bregma according to the stereotaxic atlas of […], 1963). Tumor cells were injected at a rate of 0.5 μl/s, using a 2 μl Hamilton (#2701) syringe (Reno, Nev., USA) with a 26 s-gauge needle mounted on a stereotactic holder at a depth of 5 mm. […] For intracerebral administration of pio/vehicle (DMSO), the tip of an Alzet-brain-infusion-kit (Cupertino, Calif., USA) was placed in a depth of 5 mm, connected to a 2ML4 Alzet osmotic pump (Cupertino, Calif., USA). Drug administration began 4 h after surgery. […] The pumps were filled with 20 μM pio solved in PBS or vehicle (DMSO, 0.1% final concentration) solved in PBS. Animals were randomly distributed in two groups, treated with pio filled pumps (n=26) or vehicle filled pumps (n=26). Thereafter skull was cleaned and the incision sutured. […] Control animals received Purina chow without additions. Rats were allowed free access to the chow. Tumors were allowed to grow and animals were weighed daily. […] Brains were serially sectioned at 10 μm using a cryostat (Leica, Jung CMI800, Germany). Sections for hematoxylin-eosin (HE)-staining were placed onto uncoated slides. Sections intended for use in immunoreactivity assays were placed onto coded slides (Fisher finest, premium; Houston, Tex., USA). Sections were routinely HE-stained for histomorphological assessment and measurement of tumor volume as well as immunohistochemically processed for Ki-67-, BAX, cleaved caspase-3-expression, MMP9, CS-56 and BrdU-incorporation. Images of HE-stained sections containing the tumor were captured with a SPOT model 1.3 camera (Diagnostic Instruments, Inc., Sterling Heights, Mich., USA) using a 1× objective and images processed using NIH Image 1.62 software (Bethesda, Md., USA). The tumor area of each section was manually outlined by a blinded observer using the freehand selection tool to measure tumor area in mm^2. The area was then multiplied by the section thickness (10 μm section, 10 sections/HE stain) to achieve a section volume measurement. Volumes of all sections were added to calculate the total volume of each tumor. Tumor volumes for five/six animals of every group were measured.
smiles,measurement,setting,value
"CCc1ccc(CCOc2ccc(CC3SC(=O)NC3=O)cc2)nc1 (stereo not shown) [pioglitazone, 5-[4-[2-(5-ethylpyridin-2-yl)ethoxyl]benzyl]thiazolidine-2,4-dione]",number of Ki-67 immunopositive cells compared to vehicle,C6 glioma cell cultures,reduced the number of Ki-67 immunopositive cells
same,CS-56 expression (western blot),CS-56; tissue lysates,upregulation of CS-56 expression
same,increase in CS-56 protein levels (densitometry),CS-56; tissue lysates,around 56%
same,CS-56 expression (immunohistochemistry),CS-56; tumor margin towards healthy brain tissue,upregulation of CS-56
same,"tumor volume compared to vehicle, in words","[1]; intracerebral, 3 and 6 days",no significant differences
same,"tumor volume compared to vehicle, in words","[1]; intracerebral, 9, 14 and 21 days",decreased significantly
same,reduction of tumor volume compared to vehicle,"[1]; intracerebral, pio 20 μM via osmotic pump",83%
same,reduction of tumor volume compared to vehicle,[1]; oral treatment (in chow),77%
same,reduction of tumor volume compared to vehicle,"[1]; oral treatment (in chow), listed as pio",76.9%
same,histological evaluation of tumor margins and invasiveness,[1]; pio treated in vivo gliomas,more defined tumor margins and decreased invasiveness
